In patent US11331299B2, “Medicinal use of serrulatane diterpenes” (The University of Sydney, priority 2016, dated 2022):
Read-outs that look alike come from different tables or passages of the source.

Legend:
[1] = target: T1, CBX7 (h) chromodomain (Homo sapiens, UniProt O95931); assay: Epigenetic binding assay, Chromodomain; details: read-out: % Inhibition of Control Specific Binding
T1 construct: Recognition and specificity determinants of the human cbx chromodomains; Eurofins CEREP (France), contract laboratory
T1 sequence (O95931 11-69 limits assumed): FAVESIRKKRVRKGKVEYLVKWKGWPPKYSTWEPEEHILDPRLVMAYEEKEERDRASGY

[2] = target: PHF8(h) (Homo sapiens, UniProt Q9UPP1); assay: Epigenetic enzyme assay, Demethylases (KDMs); assay type: biochemical; details: read-out: % Inhibition of Control Values
PHF8(h), sequence (Q9UPP1 whole entry): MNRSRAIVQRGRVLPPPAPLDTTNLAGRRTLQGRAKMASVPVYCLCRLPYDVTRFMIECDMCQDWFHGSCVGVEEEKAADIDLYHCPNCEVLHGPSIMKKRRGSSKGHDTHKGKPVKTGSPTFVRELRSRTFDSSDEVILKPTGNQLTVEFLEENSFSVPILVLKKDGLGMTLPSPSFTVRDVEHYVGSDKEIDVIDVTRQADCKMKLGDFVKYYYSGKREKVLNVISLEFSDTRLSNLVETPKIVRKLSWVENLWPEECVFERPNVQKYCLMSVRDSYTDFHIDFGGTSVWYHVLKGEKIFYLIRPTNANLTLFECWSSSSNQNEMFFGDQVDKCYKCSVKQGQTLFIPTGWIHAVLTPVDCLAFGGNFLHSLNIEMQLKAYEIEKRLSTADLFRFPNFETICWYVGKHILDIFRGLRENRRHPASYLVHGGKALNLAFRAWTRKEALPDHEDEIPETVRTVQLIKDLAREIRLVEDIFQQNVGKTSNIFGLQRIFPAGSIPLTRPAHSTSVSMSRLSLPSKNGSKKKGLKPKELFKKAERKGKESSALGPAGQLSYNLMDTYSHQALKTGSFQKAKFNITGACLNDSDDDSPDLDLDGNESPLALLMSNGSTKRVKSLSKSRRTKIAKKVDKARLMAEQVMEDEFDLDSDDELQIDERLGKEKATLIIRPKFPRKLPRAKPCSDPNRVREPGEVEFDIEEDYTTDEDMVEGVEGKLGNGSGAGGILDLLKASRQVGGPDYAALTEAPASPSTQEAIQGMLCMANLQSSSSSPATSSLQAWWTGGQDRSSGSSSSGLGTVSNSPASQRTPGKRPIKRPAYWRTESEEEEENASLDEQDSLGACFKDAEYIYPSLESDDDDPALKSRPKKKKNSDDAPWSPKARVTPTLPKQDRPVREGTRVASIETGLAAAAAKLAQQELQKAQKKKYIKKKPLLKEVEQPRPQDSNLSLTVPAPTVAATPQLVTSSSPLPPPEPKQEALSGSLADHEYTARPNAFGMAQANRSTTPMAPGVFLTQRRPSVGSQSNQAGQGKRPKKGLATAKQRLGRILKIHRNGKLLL

[3] = target: T2, G9a (h) (Homo sapiens, UniProt Q96KQ7); assay: Epigenetic enzyme assay, Methyltransferases (MTs); assay type: biochemical; details: for % Inhibition of Control Values / inhibition at 10 µM: 10 μM; for inhibition at 10 µM: read-out: % Inhibition of Control Values; for IC50: Table 11, inhibition/concentration-response curve
T2 sequence (Q96KQ7 1-1210): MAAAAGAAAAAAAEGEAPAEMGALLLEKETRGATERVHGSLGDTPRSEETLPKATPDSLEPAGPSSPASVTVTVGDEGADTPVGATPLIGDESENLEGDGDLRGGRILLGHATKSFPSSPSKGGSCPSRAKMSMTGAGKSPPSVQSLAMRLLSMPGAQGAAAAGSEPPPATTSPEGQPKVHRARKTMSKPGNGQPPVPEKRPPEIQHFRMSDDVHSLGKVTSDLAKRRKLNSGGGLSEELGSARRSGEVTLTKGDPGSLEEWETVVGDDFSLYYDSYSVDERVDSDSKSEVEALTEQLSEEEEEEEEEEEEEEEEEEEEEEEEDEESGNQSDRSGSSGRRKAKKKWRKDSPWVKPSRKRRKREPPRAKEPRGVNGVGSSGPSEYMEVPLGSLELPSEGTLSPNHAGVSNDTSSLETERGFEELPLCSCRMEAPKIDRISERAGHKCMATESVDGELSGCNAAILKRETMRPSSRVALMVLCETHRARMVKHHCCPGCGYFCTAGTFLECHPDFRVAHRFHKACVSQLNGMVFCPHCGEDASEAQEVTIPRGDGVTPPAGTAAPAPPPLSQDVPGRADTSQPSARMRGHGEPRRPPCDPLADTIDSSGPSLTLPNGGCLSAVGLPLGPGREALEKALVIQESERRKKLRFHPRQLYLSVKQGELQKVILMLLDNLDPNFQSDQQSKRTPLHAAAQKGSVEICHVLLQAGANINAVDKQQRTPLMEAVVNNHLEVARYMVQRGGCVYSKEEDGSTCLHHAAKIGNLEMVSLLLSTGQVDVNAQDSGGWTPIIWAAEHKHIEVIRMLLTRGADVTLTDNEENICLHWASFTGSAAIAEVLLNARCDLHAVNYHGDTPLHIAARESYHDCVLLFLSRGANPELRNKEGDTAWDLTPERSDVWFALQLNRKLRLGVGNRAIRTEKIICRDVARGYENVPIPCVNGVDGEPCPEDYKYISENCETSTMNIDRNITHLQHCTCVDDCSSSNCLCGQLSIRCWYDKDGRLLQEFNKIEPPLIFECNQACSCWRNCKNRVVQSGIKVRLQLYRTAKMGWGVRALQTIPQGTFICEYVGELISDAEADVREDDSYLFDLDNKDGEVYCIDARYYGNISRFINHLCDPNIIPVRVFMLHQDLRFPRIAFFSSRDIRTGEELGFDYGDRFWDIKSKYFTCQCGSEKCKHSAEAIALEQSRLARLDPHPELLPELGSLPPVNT

[4] = target: T3, Thioredoxin Reductase (Escherichia coli, UniProt P0A9P4); assay: Thioredoxin Reductase; assay type: biochemical, E. coli
T3 construct: host or cells: E. coli
T3 sequence (P0A9P4 2-321): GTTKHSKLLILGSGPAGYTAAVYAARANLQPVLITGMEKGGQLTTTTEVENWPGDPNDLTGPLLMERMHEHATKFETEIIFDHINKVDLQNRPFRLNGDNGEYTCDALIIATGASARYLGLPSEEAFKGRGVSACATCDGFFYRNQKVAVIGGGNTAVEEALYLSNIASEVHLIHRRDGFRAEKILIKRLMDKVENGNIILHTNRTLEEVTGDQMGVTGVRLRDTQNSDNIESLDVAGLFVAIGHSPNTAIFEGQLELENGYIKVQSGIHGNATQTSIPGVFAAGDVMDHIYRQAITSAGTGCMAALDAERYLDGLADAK
Description: (§1) The in vitro pharmacological studies were conducted by Eurofins PanLab (Taiwan) using the parameters shown in Table 13 with respect to appropriate literature references.

[5] = target: T4, Deacetylase, Histone 1 (Homo sapiens, UniProt Q13547); assay: Deacetylase, Histone 1 (PanLab); assay type: biochemical
T4 construct: host or cells: Insect Sf9 cells
T4 sequence (Q13547 whole entry): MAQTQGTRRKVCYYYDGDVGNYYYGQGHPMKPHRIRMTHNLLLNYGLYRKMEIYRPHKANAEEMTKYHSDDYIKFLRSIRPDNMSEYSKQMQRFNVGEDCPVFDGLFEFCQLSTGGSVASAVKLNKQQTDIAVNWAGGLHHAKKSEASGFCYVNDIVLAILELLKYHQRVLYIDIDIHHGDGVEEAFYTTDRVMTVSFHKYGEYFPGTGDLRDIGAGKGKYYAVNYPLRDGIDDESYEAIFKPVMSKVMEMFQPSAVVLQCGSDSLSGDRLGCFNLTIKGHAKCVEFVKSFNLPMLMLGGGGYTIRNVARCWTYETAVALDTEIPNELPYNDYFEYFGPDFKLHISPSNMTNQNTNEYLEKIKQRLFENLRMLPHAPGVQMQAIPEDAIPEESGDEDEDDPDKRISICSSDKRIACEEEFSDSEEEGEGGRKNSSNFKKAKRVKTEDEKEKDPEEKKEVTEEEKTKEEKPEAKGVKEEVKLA
Description: as §1

[6] = target: T5, Xanthine Oxidase (Bos taurus, UniProt P80457); assay: Xanthine Oxidase; assay type: biochemical, Bovine; details: assay year 2015, read-out: % Control Response
T5 construct: Bovine buttermilk; from tissue; host or cells: bovine buttermilk
T5 sequence (P80457 whole entry): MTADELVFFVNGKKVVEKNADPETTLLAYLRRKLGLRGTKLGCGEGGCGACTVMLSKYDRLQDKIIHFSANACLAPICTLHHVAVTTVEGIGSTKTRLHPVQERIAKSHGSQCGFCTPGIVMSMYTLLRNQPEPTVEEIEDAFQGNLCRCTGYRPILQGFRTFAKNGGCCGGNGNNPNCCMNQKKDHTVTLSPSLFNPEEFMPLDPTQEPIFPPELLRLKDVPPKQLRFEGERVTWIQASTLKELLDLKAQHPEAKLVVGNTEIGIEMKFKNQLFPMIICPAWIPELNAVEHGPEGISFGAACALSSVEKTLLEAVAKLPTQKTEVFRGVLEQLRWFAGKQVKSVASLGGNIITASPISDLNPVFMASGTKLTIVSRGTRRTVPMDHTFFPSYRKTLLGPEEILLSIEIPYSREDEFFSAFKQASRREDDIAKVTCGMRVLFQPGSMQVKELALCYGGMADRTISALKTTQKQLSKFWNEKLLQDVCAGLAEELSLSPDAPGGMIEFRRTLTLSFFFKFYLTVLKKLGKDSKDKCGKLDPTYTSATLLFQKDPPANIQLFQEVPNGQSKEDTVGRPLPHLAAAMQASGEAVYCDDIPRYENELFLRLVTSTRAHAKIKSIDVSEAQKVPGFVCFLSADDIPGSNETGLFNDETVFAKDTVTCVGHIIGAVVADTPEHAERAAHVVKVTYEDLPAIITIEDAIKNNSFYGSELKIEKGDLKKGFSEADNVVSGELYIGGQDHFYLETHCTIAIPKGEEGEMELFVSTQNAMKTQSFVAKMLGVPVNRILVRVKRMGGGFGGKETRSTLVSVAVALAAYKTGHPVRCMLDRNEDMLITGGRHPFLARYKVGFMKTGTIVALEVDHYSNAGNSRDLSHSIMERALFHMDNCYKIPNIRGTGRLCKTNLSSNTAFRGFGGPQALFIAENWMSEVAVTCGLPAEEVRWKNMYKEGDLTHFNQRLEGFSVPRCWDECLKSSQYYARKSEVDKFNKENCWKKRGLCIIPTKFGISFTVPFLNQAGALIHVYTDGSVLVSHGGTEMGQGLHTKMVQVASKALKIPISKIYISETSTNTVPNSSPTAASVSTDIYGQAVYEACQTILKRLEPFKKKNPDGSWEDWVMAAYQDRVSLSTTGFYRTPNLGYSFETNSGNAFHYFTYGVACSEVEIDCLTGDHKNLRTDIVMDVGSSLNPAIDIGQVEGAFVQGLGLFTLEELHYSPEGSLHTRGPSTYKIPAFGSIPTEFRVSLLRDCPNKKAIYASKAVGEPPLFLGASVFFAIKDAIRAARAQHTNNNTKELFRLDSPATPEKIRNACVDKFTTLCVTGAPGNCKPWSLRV
Description: as §1

[7] = target: CYP3A (Homo sapiens, UniProt P08684); assay: Cytochrome P450 Inhibition (CYP panel); assay type: in vitro ADME; details: probe testosterone; for inhibition at 1 µM: human liver microsomes; for inhibition at 10 µM: liver microsomes
CYP3A, sequence (P08684 2-503): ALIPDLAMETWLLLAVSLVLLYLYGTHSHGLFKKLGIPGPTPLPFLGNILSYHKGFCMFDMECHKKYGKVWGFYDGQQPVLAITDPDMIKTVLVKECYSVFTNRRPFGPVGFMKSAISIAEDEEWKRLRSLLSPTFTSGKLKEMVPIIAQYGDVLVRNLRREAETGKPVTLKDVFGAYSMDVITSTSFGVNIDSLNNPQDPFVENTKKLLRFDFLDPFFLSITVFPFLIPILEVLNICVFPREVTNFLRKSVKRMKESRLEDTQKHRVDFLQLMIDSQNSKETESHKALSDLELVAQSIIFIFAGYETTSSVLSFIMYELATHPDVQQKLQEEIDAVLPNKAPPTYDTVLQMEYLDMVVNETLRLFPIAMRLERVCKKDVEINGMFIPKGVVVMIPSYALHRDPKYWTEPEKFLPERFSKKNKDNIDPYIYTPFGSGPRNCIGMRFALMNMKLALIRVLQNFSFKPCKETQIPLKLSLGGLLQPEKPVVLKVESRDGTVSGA

[8] = target: T6, Histamine H4 (Homo sapiens, UniProt Q9H3N8); assay: Histamine H4 radio ligand binding
T6 construct: expressed in transfected cells; host or cells: Chem-1 cells
T6 sequence (Q9H3N8 whole entry): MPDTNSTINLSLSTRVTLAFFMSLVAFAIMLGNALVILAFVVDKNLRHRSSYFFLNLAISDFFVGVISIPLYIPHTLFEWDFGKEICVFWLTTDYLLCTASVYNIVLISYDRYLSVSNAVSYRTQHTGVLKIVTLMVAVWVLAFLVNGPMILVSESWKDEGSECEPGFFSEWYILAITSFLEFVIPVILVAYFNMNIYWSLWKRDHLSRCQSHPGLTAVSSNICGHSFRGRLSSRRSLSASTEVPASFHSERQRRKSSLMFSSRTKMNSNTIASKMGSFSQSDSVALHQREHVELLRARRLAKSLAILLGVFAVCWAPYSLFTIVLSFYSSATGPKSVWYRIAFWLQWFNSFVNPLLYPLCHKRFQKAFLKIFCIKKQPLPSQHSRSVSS
Description: as §1

[9] = target: T7, Phospholipase sPLA2-V (Homo sapiens, UniProt P39877); assay: Phospholipase sPLA2-V; assay type: biochemical; details: assay year 2015, read-out: % Control Response
T7 construct: host or cells: E. coli
T7 sequence (P39877 21-138): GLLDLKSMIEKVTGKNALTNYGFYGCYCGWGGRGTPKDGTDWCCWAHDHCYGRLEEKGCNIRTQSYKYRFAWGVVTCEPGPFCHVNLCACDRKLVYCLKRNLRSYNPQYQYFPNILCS
Description: as §1

[10] = target: T8, SETD7 (h) (Homo sapiens, UniProt Q8WTS6); assay: Epigenetic enzyme assay, Methyltransferases (MTs); assay type: biochemical; details: for inhibition at 10 µM: read-out: % Inhibition of Control Values
T8 sequence (Q8WTS6 1-366): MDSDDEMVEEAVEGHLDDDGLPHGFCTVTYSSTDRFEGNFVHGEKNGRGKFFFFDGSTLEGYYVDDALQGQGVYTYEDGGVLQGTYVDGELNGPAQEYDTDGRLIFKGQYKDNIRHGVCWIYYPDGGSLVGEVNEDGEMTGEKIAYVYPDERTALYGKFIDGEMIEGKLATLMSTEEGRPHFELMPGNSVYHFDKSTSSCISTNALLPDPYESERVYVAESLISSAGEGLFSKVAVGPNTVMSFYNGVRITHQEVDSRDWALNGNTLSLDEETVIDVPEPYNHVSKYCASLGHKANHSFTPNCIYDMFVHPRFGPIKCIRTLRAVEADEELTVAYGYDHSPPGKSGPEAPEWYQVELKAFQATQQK

[11] = assay year 2014, read-out: % Control Response
[12] = assay year 2015, read-out: % Control Response
[13] = CYP3A (testosterone sub.), Human liver microsomes, read-out: % Inhibition of Control Values

Compound | inhibition at 10 µM [1] [%] | inhibition at 10 µM [2] [%] | % Inhibition of Control Values [3] | inhibition at 10 µM [3] [%] | IC50 [3] [µM] | % Control Response ([4]; 10 μM, assay year 2014) | remaining activity at 10 µM [4, 11] [%] | remaining activity at 10 µM [4, 12] [%] | % control response at 10 µM ([5]; assay year 2014) [%] | % control response at 10 µM ([5]; assay year 2015) [%] | remaining activity at 10 µM [6] [%] | inhibition at 1 µM ([7]; read-out: % inhibition) [%] | inhibition at 1 µM [7, 13] [%] | inhibition at 10 µM [7, 13] [%] | remaining activity at 10 µM [8, 11] [%] | remaining activity at 10 µM [8, 12] [%] | remaining activity at 10 µM [9] [%] | inhibition at 10 µM [10] [%] | IC50 ([10]; read-out: Reference IC50) [µM]
CC(C)=CCC[C@H](CO)[C@@H]1CC[C@@H](C)c2c1cc(C)c(O)c2O [Compound 1, 7,8,18-trihydroxyserrulat-14-ene] | 25 | 36 | strong inhibitor | 86 | 11 | inhibited the activity | 71 | 35 | 17 | -27 | 14 | 7 to 20 | 7 | 77 | 50 | 12 | 4 | 12 | 
CC(C)=CCC[C@@H]1C(O)Oc2c(C)cc(O)c3c2[C@H]1CC[C@H]3C (stereo partly shown) [Compound 2, 5,18-epoxyserrulat-14-en-8,18-diol] | 33 | -11 | weaker | 64 | 5.4 |  | 6 | 12 | 23 | -18 | 20 | 7 to 20 | 17 | 57 | 16 | -1 | 3 | 16 | 
CC(C)=CCC[C@@H]1COc2c(C)cc(O)c3c2[C@H]1CC[C@H]3C [Compound 3, 5,18-epoxy-8-hydroxyserrulat-14-ene] | 43 | 13 | weaker | 49 |  |  |  | 9 |  | -26 | 27 |  |  |  |  | 10 | 0 | -2 | 
CC(C)=CCC[C@H](C)[C@@H]1CC[C@@H](C)c2c1cc(C)c(O)c2O [Compound 4, 7,8-dihydroxyserrulat-14-ene] |  |  |  |  |  |  |  |  |  |  |  | 7 to 20 | 20 | 48 |  |  |  |  | 
Nc1ncnc2c1ncn2[C@@H]1O[C@H](CSCC[C@H](N)C(=O)O)[C@@H](O)[C@H]1O [SAH] |  |  |  |  |  |  |  |  |  |  |  |  |  |  |  |  |  |  | 24
